Source: ChEMBL document CHEMBL1201862, “PubChem BioAssay data set” (2004)
Activity calls are given as the source filed them.

Assays:
Leucine aminopeptidase = target: T1, Leucine aminopeptidase (Plasmodium falciparum 3D7, UniProt Q8IL11); assay: P. falciparum M17LAP inhibitors, primary screen, biochemical, fluorogenic H-Leu-NHMec substrate, 1536-well (AID 1619); type: functional
T1 sequence (Q8IL11 whole entry): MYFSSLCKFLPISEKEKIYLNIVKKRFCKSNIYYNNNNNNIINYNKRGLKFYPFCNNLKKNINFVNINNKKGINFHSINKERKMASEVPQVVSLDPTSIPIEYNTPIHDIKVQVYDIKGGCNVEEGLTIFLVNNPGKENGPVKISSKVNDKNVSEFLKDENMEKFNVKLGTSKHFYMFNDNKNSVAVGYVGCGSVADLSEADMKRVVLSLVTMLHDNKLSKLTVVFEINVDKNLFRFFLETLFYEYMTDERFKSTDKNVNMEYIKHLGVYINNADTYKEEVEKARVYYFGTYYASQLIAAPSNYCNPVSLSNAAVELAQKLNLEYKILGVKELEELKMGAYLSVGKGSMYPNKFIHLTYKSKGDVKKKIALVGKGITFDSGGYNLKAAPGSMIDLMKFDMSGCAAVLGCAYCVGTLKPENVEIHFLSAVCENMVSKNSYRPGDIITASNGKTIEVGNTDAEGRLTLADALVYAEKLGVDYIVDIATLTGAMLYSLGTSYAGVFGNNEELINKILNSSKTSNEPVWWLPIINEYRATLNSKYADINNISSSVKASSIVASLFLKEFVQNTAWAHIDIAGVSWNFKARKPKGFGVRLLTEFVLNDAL

Major prion protein = Major prion protein (Homo sapiens, UniProt P04156); type: functional, cell-based
[1] = target: Mitogen-activated protein kinase 10 (Homo sapiens, UniProt P53779); assay: Dose response biochemical screening assay for inhibitors of c-Jun N-Terminal Kinase 3 (JNK3). [Related pubchem assays: 746 ]
Protein Tat = Protein Tat (Human immunodeficiency virus type 1 group M subtype B (isolate HXB2)(HIV-1), UniProt P04608); type: functional;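 also: tat binding to TAR RNA read out by fluorescence polarization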
[2] = inhibitors of Vif binding to APOBEC3G peptide, primary screen, biochemical, TR-FRET, GST-Vif 1-94, biotin-A3G peptide, dose response retest (AID 1117319); type: functional;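 also: TR-FRET signal of purified GST-Vif binding a biotinylated A3G peptide; inhibitors lower the FRET signal by blocking Vif and A3G binding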
[3] = target: G-protein coupled receptor 55 (Homo sapiens, UniProt Q9Y2T6); assay: GPR55 antagonists, SAR follow-up, counter-screen for GPR35 antagonist project, imaging, image-based (AID 2397); type: functional
[4] = target: Tyrosine-protein phosphatase non-receptor type 12 (Homo sapiens, UniProt Q05209); assay: SAR Selectivity Analysis of small molecule inhibitors of PEST using pCAP in a fluorescence assay. [Related pubchem assays (depositor defined):AID1779, AID1784, AID2135]; type: functional
[5] = target: T2, Tyrosine-protein phosphatase non-receptor type 7 (Homo sapiens, UniProt P35236); assay: HePTP (PTPN7) phosphatase inhibitor potency, SAR follow-up, biochemical, set 2 (AID 449736); type: functional
T2 sequence (P35236 whole entry): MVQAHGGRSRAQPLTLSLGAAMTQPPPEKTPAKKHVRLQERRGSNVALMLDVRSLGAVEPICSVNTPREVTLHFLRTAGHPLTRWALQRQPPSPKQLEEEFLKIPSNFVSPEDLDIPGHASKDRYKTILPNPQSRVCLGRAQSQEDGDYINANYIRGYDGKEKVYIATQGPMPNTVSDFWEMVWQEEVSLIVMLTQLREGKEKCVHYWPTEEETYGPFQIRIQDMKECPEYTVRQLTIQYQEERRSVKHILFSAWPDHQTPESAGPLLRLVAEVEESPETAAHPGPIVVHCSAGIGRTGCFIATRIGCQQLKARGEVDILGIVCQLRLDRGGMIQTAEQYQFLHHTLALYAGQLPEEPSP

[6] = target: T3, Tyrosine-protein phosphatase non-receptor type 22 (Homo sapiens, UniProt Q9Y2R2); assay: SAR LYP1 Fluorescent Assay using OMFP substrate for In Vitro dose response studies - Set 3. [Related pubchem assays (depositor defined):AID1779, AID1784, AID2140, AID2686]; type: functional
T3 sequence (Q9Y2R2 whole entry): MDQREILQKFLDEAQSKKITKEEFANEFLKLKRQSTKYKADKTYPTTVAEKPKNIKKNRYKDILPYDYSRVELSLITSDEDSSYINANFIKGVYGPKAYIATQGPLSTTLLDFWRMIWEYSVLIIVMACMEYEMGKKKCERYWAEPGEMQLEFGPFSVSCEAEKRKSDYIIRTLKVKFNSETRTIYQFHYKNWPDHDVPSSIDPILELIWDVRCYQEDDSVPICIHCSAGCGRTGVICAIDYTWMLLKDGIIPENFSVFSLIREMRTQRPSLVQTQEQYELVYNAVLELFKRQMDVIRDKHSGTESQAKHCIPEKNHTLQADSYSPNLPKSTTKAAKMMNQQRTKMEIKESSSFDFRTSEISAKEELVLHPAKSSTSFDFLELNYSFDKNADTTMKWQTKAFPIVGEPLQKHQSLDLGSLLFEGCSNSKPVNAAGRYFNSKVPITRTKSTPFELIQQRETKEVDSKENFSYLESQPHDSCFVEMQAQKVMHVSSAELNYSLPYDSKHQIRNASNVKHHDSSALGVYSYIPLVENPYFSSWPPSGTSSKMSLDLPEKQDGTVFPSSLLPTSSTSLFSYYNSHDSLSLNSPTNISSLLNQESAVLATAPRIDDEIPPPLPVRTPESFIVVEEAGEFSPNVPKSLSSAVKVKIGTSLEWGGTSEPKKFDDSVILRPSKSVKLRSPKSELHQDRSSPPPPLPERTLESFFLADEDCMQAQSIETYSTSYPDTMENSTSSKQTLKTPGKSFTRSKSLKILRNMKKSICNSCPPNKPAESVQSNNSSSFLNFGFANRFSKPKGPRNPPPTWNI

[7] = target: G-protein coupled receptor 35 (Homo sapiens, UniProt Q9HC97); assay: SAR Analysis for the identification of Selective Antagonists of ERK1/2 Activity in GPR35-Overexpressing U2OS Cells. [Related pubchem assays: 2079, 2058 ]; type: functional, cell-based
[8] = target: T3, Tyrosine-protein phosphatase non-receptor type 22; assay: LYP (PTPN22) phosphatase inhibitor potency, SAR follow-up, biochemical, pCAP fluorogenic substrate, fluorescence, set 3 (AID 449727); type: functional
[9] = P. falciparum Dd2 growth inhibitors, dose response, SYBR Green, cherry-picked samples (AID 1159567); type: functional, cell-based
[10] = HepG2 cell cytotoxicity, dose response, cytotoxicity control, cherry-picked samples (AID 1159577); type: functional, cell-based
[11] = P. falciparum Dd2 growth inhibitors, dose response, SYBR Green, dry powder samples (AID 1159566); type: functional, cell-based;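 also: potency for growth inhibition with lower SYBR green DNA signal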
[12] = P. falciparum ATP4 D1247Y mutant growth inhibitors, dose response, NITD609-resistant line, SYBR Green, dry powder (AID 1159571); type: functional, cell-based;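 also: parasites synchronized at ring stage by sorbitol before testing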
[13] = HepG2 cell cytotoxicity, dose response, cytotoxicity control, plate reader, dry powder samples (AID 1159569); type: functional, cell-based;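 also: inhibitor potency with signal falling toward the positive control level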
[14] = P. falciparum 3D7-ScDHODH growth inhibitors, dose response, SYBR Green, dry powder samples (AID 1159570); type: functional, cell-based;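 also: parasite growth measured after 72 hours of compound exposure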

## N#Cc1c(O)nc(SCC(=O)Nc2cccc(Cl)c2)nc1-c1ccco1
Leucine aminopeptidase
  IC50: 2.5 µM (active)
cells
  IC50: > 138 µM (inactive)
Major prion protein
  IC50: 1.69 µM (active)
[1]
  IC50: 29.7 µM (not active)

## COc1cc(/C=C(\CC(=O)O)c2nc3ccccc3s2)cc(OC)c1O
Protein Tat
  IC50: > 100 µM (active)
[2]
  IC50: > 100 µM (active)

## CCOC(=O)c1ccc(NC(=O)CCCN2C(=O)/C(=C/c3ccc(C)cc3)SC2=S)cc1
[3]
  IC50: > 32 µM (inactive)
[4]
  IC50: 96.4 µM (active)
[5]
  IC50: > 100 µM (inactive)
[6]
  IC50: > 100 µM (inactive)
[7]
  IC50: 21.4 µM (not active)
[8]
  IC50: > 100 µM (inactive)

## N#Cc1ccc(-c2ccc([C@H]3[C@@H]4CN(C(=O)C5CCCC5)C[C@H]3N4)cc2)cc1
[9]
  AC50: 7.4 µM (active)
[10]
  AC50: > 39 µM (inactive)

## Cc1ccc(S(=O)(=O)N(C)C[C@H]2OCc3ccccc3-c3c(n(C)c4ccccc34)C(=O)N([C@@H](C)CO)C[C@H]2C)cc1
[11]
  AC50: 2.01 µM (active)
[12]
  AC50: 2.63 µM (active)
[13]
  AC50: 9.17 µM (active)
[14]
  AC50: 3.19 µM (active)
[9]
  AC50: 2.23 µM (active)
